Reference: paper PMC8954547, “Nonpeptidic Z360-Analogs Tagged with Trivalent Radiometals as Anti-CCK2R Cancer Theranostic Agents: A Preclinical Study” (Pharmaceutics, 2022)

Columns and labels:
HEK293-CCK2i4svR cells = assay: Radioligand uptake and internalization in HEK293-CCK2i4svR cells; format: cell-based, human; conditions: 1 h 37 °C, specific, of total added activity
Experimental: A day before the experiment, HEK293-CCK2i4svR cells were seeded in six-well plates. The next day, cells were rinsed with ice-cold internalization medium (IM: DMEM Glutamax-I, supplemented by 1% (v/v) FBS) and then the fresh medium was added (1.2 mL) at 37 °C. A further portion of IM (150 µL) was added in the upper well-row, and DG2 solution in IM (150 µL) was added in the lower row (to a final concentration of 1 μM; non-specific series). Each of the test radioligands, [^67Ga]Ga/[^111In]In/[^177Lu]Lu-GAS1/3 and [^67Ga]Ga/[^111In]In-GAS2, was finally added (250 fmol total conjugates in 150 μL 0.5% BSA-PBS) in all the wells and the plates were incubated at for 1 h at 37 °C in an Incubator-Orbital Shaker unit (MPM Instr. SrI, Bernareggio, MI, Italy); [^111In]In-GAS1/2/3 were incubated for 15 min, 30 min, 1 h and 2 h. At the predetermined time points, the plates were placed on ice, the medium was collected, and the plates were rinsed with 0.5% BSA-PBS (1 mL). Cells were subsequently treated with an acid-wash solution (2 × 600 µL; 50 mM glycine buffer pH 2.8, 0.1 M NaCl) and the fractions collected (membrane-bound). After briefly washing with 0.5% BSA-PBS (1 mL), the cells were lysed with 1 N NaOH (2 × 600 µL), and the fractions were collected (internalized). The radioactivity content of collected fractions was counted in the gamma counter, and the percentage of internalized and membrane-bound fractions per time point were calculated with Microsoft Excel. Specific internalized and membrane-bound counts were determined by subtracting the respective non-specific (in the presence of 1 μM DG2) from the respective total counts. Results represent specific internalized/membrane bound ± SD of total added radioactivity per well from three experiments performed in triplicate.

[1] = system: SCID mice bearing twin HEK293-CCK2i4svR and wtHEK293 tumors; assay: Biodistribution in SCID mice bearing twin HEK293-CCK2i4svR and wtHEK293 xenografts; format: in vivo
Experimental: Inocula containing a suspension of freshly harvested HEK293-CCK2i4svR/wtHEK293 cells (150 μL, 1.8 × 10^7/1.4 × 10^7 cells, respectively, in normal saline) were subcutaneously (sc) injected in the right and left flanks of male SCID mice (24.5 ± 2.3 g body weight, six weeks of age on arrival day, NCSR “Demokritos” Animal House Facility). Well-palpable tumors (0.42 ± 0.37/0.25 ± […], respectively) were grown at the inoculation site 3–4 weeks later, and biodistribution was conducted. On the day of biodistribution, animals were divided into groups of four and received the radioligand through the tail vein as a bolus (100 μL, containing each of: i. 78–91 kBq [^67Ga]GAS1/2/3 corresponding to 7–17 pmol GAS1/2/3; ii. 74–92 kBq [^111In]GAS1/2/3 corresponding to 20–25 pmol GAS1/2/3; iii. 730 kBq [^177Lu]Lu-GAS1/3 corresponding to 40 pmol GAS1/3, in-vehicle: saline/EtOH 9/1 v/v). Animals were euthanized at predetermined time intervals depending upon the radionuclide applied (for [^67Ga]Ga-GAS1/2/3: 1, 4 and 24 h pi; for [^111In]In-GAS1/2/3: 4 and 24 h pi–two extra groups of mice receiving gelofusine together with [^111In]In-GAS1/2 at 4 and 24 h pi were included; and for [^177Lu]Lu-GAS1/3: 4, 24, 48, 72 and 96 h pi). Mice were dissected, and blood samples, organs of interest and tumors were rapidly collected, weighted and counted in the gamma counter. Biodistribution data was calculated as the percentage of the administered dose per gram tissue (%IA/g) with the aid of suitable standards of the administered dose and the Microsoft Excel program. Results are presented as mean % IA/g values ± SD, n = 4 per time point, as determined by the PRISM^TM 6.0 GraphPad software (San Diego, CA, USA).

Structure (SMILES): CC(C)(C)C(=O)CN1C(=O)[C@H](NC(=O)Nc2cccc(C(=O)NCCOCCOCCOCCNC(=O)[C@H](CCC(=O)O)NC(=O)CCC(C(=O)O)N3CCN(CC(=O)[O-])CCN(CC(=O)[O-])CCN(CC(=O)[O-])CC3)c2)CN(C2CCCCC2)c2ccccc21.[67Ga+3] (stereo in doubt) [[^67Ga]Ga-GAS3]
- Cell uptake (internalized + membrane-bound) (HEK293-CCK2i4svR cells): 4.95 ± 0.51%
- Biodistribution, Blood ([1]; 1 h pi): 8.61 ± 1.17 %IA/g
- Biodistribution, CCK2i4svR(+) Tumor ([1]; 1 h pi): 21.75 ± 4.90 %IA/g
- Biodistribution, CCK2i4svR(-) Tumor ([1]; 1 h pi): 2.52 ± 0.28 %IA/g
- Biodistribution, Femur ([1]; 1 h pi): 1.60 ± 0.31 %IA/g
- Biodistribution, Heart ([1]; 1 h pi): 2.23 ± 0.38 %IA/g
- Biodistribution, Intestines ([1]; 1 h pi): 1.53 ± 0.19 %IA/g
- Biodistribution, Kidneys ([1]; 1 h pi): 9.09 ± 1.51 %IA/g
- Biodistribution, Liver ([1]; 1 h pi): 5.62 ± 0.40 %IA/g
- Biodistribution, Lungs ([1]; 1 h pi): 4.32 ± 0.58 %IA/g
- Biodistribution, Muscle ([1]; 1 h pi): 0.82 ± 0.14 %IA/g
- Biodistribution, Pancreas ([1]; 1 h pi): 2.51 ± 0.22 %IA/g
- Biodistribution, Spleen ([1]; 1 h pi): 1.96 ± 0.13 %IA/g
- Biodistribution, Stomach ([1]; 1 h pi): 1.51 ± 0.13 %IA/g
- Biodistribution, Blood ([1]; 4 h pi): 2.23 ± 0.39 %IA/g
- Biodistribution, CCK2i4svR(+) Tumor ([1]; 4 h pi): 20.39 ± 3.96 %IA/g
- Biodistribution, CCK2i4svR(-) Tumor ([1]; 4 h pi): 1.15 ± 0.18 %IA/g
- Biodistribution, Femur ([1]; 4 h pi): 0.78 ± 0.10 %IA/g
- Biodistribution, Heart ([1]; 4 h pi): 0.76 ± 0.07 %IA/g
- Biodistribution, Intestines ([1]; 4 h pi): 1.59 ± 0.19 %IA/g
- Biodistribution, Kidneys ([1]; 4 h pi): 7.86 ± 0.48 %IA/g
- Biodistribution, Liver ([1]; 4 h pi): 4.97 ± 0.74 %IA/g
- Biodistribution, Muscle ([1]; 4 h pi): 0.25 ± 0.05 %IA/g
- Biodistribution, Pancreas ([1]; 4 h pi): 0.77 ± 0.11 %IA/g
- Biodistribution, Spleen ([1]; 4 h pi): 1.60 ± 0.39 %IA/g
- Biodistribution, Stomach ([1]; 4 h pi): 0.61 ± 0.12 %IA/g
- Biodistribution, Blood ([1]; 24 h pi): 0.14 ± 0.02 %IA/g
- Biodistribution, CCK2i4svR(+) Tumor ([1]; 24 h pi): 5.37 ± 1.00 %IA/g
- Biodistribution, CCK2i4svR(-) Tumor ([1]; 24 h pi): 0.61 ± 0.08 %IA/g
- Biodistribution, Femur ([1]; 24 h pi): 0.52 ± 0.07 %IA/g
- Biodistribution, Heart ([1]; 24 h pi): 0.17 ± 0.02 %IA/g
- Biodistribution, Intestines ([1]; 24 h pi): 0.39 ± 0.06 %IA/g
- Biodistribution, Kidneys ([1]; 24 h pi): 1.98 ± 0.45 %IA/g
- Biodistribution, Liver ([1]; 24 h pi): 2.48 ± 0.34 %IA/g
- Biodistribution, Lungs ([1]; 24 h pi): 2.43 ± 1.04 %IA/g
- Biodistribution, Muscle ([1]; 24 h pi): 0.06± 0.00 %IA/g
- Biodistribution, Pancreas ([1]; 24 h pi): 0.17 ± 0.03 %IA/g
- Biodistribution, Spleen ([1]; 24 h pi): 1.67 ± 0.37 %IA/g
- Biodistribution, Stomach ([1]; 24 h pi): 0.19 ± 0.03 %IA/g
- Background clearance / excretion route ([1]; mouse, in vivo): cleared mainly via the kidneys
